Results taken from US11760773B2, “Small molecule drug conjugates of gemcitabine monophosphate” (MaveriX Oncology, Inc., priority 2018, dated 2023).
pIC50: −log10 of the molar value. Counter-ions that a name gives are not always drawn. Like-named read-outs stand apart in the source and are kept apart here.

Assays:
UT-SCC-8 = assay: Tumor cell proliferation (alamarBlue) cytotoxicity assay, UT-SCC-8; assay type: cell-based, human
Method: (§1) A tumor cell proliferation assay was used to determine cytotoxicity IC50 values for the phosphate prodrug Compounds 1-9, the parent non-phosphorylated SMDC parent compounds, and the effector (gemcitabine) across eight primary early-passage human head and neck squamous cell carcinoma cell lines including UT-SCC-5, UT-SCC-8, UT-SCC-9, UT-SCC-10, UT-SCC-14, UT-SCC-16A, UT-SCC-16B, and UT-SCC-24A.
(§2) UTSCC cells were seeded at 4000 cells/100 I/well on 96-well black clear-bottom tissue culture plate. Cells were incubated at 37° C. and 5% CO2 overnight to allow them to recover and re-attach. The next day cells were treated with the test compound (0-100 μM) for 72 hours. After treatment, cell proliferation was measured by Fluorescent quantitation of alamarBlue reagent. The alamarBlue assay incorporates a fluorometric/colorimetric growth indicator based on detection of metabolic activity. Specifically, resazurin, the active ingredient of alamarBlue reagent, is blue in color and virtually non-fluorescent. Upon entering cells, resazurin is reduced to resorufin, a compound that is red in color and highly fluorescent.
(§3) Continued cell growth maintains a reduced environment, therefore increasing the overall fluorescence and color of the media surrounding cells. The fluorescence intensity of alamarBlue reagent was directly proportional to cell number. To perform the alamarBlue assay, 10 I of alamarBlue reagent was added to each well and the plate was incubated at 37° C. for an additional 2 hour. Fluorescence intensity was measured at an excitation of 530 nm and an emission of 590 nm using a BioTek Synergy™ 2 microplate reader.
(§4) Cell proliferation assays in triplicate were performed at each concentration. The fluorescent intensity data were analyzed using the computer software, Graphpad Prism. In the absence of the compound, the fluorescent intensity (Ft) in each data set was defined as 100%. In the absence of cells, the fluorescent intensity (Fb) in each data set was defined as 0%. The percent cell in the presence of each compound was calculated according to the following equation: % cell=(F−Fb)/(Ft−Fb), where F=the fluorescent intensity in the presence of the compound, Fb=the fluorescent intensity in the absence of cells, and Ft=the fluorescent intensity in the absence of the compound. The values of % cell versus a series of compound concentrations were then plotted using non-linear regression analysis of Sigmoidal dose-response curve generated with the equation Y=B+(T−B)/1+10^((Log EC50-X)×Hill Slope) where Y=percent cell, B=minimum percent cell, T=maximum percent cell, X=logarithm of compound and Hill Slope=slope factor or Hill coefficient. The IC50 value was determined by the concentration causing a half-maximal percent activity.

[1] = Mouse plasma stability (Compound 1); assay type: in vitro ADME
[2] = Compound 1 and gemcitabine plasma PK in the male cynomolgus monkey (study h); assay type: in vivo
Method: Objectives: to compare the plasma pharmacokinetics and stability of the Compound 1 with Int 1-4 and in plasma following a single intravenous infusion administration of Compound 1 at 5 mg/kg and 10 mg/kg with equimolar gemcitabine at 2.28 mg/kg in male cynomolgous monkeys.
PK measurements: compare PK parameters C0, CL, Vdss, Cmax, tmax, t1/2, AUC(0-t), AUC(0-inf), MRT(0-t), MRT(0-inf) for Compound 1 and Int 1-4 with gemcitabine.

UT-SCC-5 = assay: Tumor cell proliferation (alamarBlue) cytotoxicity assay, UT-SCC-5; assay type: cell-based, human
Method: as §1, §2, §3, §4

UT-SCC-16A = assay: Tumor cell proliferation (alamarBlue) cytotoxicity assay, UT-SCC-16A; assay type: cell-based, human
Method: as §1, §2, §3, §4

[3] = Comparative plasma PK of Compound 1 versus Int 1-4 in male CD-1 mice (study b); assay type: in vivo; details: male, CD-1, mouse, iv; for AUC(0-inf): read-out: AUC0-inf; for MRT inf: read-out: MRT0-inf; for MRT last: read-out: MRT0-last; for Vd: read-out: Vdss
Method: Objectives: to compare the plasma pharmacokinetics and stability of Compound 1 with its non-phosphorylated SMDC analog (Int 1-4) and in plasma following a single intravenous infusion administration of Compound 1 at 11.6 mg/kg and 23.2 mg/kg with Int 1-4 (formulation F1 & F2) at 10.0 mg/kg in male CD-1 mice
PK measurements: compare PK parameters C0, CL, Vdss, Cmax, tmax, t1/2, AUC(0-t), AUC(0-inf), MRT(0-t), MRT(0-inf) for Compound 1 and Int 1-4

UT-SCC-10 = assay: Tumor cell proliferation (alamarBlue) cytotoxicity assay, UT-SCC-10; assay type: cell-based, human
Method: as §1, §2, §3, §4

UT-SCC-14 = assay: Tumor cell proliferation (alamarBlue) cytotoxicity assay, UT-SCC-14; assay type: cell-based, human
Method: as §1, §2, §3, §4

[4] = system: primary head and neck squamous cell carcinoma cell lines; assay: Cytotoxicity, average over the eight UT-SCC cell lines; assay type: cell-based, human
Method: as §1
UTSCC cells were seeded at 4000 cells/100 I/well on 96-well black clear-bottom tissue culture plate. Cells were incubated at 37° C. and 5% CO2 overnight to allow them to recover and re-attach. The next day cells were treated with the test compound (0-100 μM) for 72 hours. After treatment, cell proliferation was measured by Fluorescent quantitation of alamarBlue reagent. […]
as §3, with “To perform the alamarBlue assay, 10 I of alamarBlue reagent was added to each well and the plate was incubated at 37° C. for an additional 2 hour.” left out
Cell proliferation assays in triplicate were performed at each concentration. The fluorescent intensity data were analyzed using the computer software, Graphpad Prism. […] The IC50 value was determined by the concentration causing a half-maximal percent activity.

Solubility / formulation = assay type: physicochemical; details: water; read-out: soluble in water
UT-SCC-16B = assay: Tumor cell proliferation (alamarBlue) cytotoxicity assay, UT-SCC-16B; assay type: cell-based, human
Method: as §1, §2, §3, §4

UT-SCC-24A = assay: Tumor cell proliferation (alamarBlue) cytotoxicity assay, UT-SCC-24A; assay type: cell-based, human
Method: as §1, §2, §3, §4

UT-SCC-9 = assay: Tumor cell proliferation (alamarBlue) cytotoxicity assay, UT-SCC-9; assay type: cell-based, human
Method: as §1, §2, §3, §4

[5] = plasma, after iv Compound 1 5 mg/kg
[6] = Homo sapiens, 72 hours treatment
[7] = 11.6 mg/kg, after iv Compound 1 11.6 mg/kg
[8] = 23.2 mg/kg, after iv Compound 1 23.2 mg/kg

stability in mouse plasma [1]: stable
Slope Mean ± SE ([1]; 3 μM, 37° C.): 0.00413 ± 0.000752
VDss fold lower than Int 1-4 [2]: 10 fold
AUC(0-t) [2, 5]: 1830 ng·h/mL
C0 [2, 5]: 139000 ng/mL
clearance [2, 5]: 46.5 mL/min/kg
half-life [2, 5]: 36 s
MRT inf ([2]; plasma, after iv Compound 1 5 mg/kg, read-out: MRT0-inf): 36 s
MRT last ([2]; plasma, after iv Compound 1 5 mg/kg, read-out: MRT0-last): 36 s
Vd ([2]; plasma, after iv Compound 1 5 mg/kg, read-out: Vdss): 0.0357 L/kg
AUC(0-t) [3, 7]: 202 ng·h/mL
C0 [3, 7]: 21900 ng/mL
clearance [3, 7]: 1970 mL/min/kg
half-life [3, 7]: 52.9 s
AUC(0-inf) [3, 7]: 202 ng·h/mL
MRT inf [3, 7]: 39.2 s
MRT last [3, 7]: 38.9 s
Vd [3, 7]: 1.41 L/kg
AUC(0-t) [3, 8]: 103 ng·h/mL
C0 [3, 8]: 2330 ng/mL
clearance [3, 8]: 5190 mL/min/kg
half-life [3, 8]: 131 s
AUC(0-inf) [3, 8]: 105 ng·h/mL
MRT inf [3, 8]: 164 s
MRT last [3, 8]: 153 s
Vd [3, 8]: 12 L/kg
solubility (Solubility / formulation): > 300 mg/mL
SMILES: COc1cc(OC)c2oc(COC(=O)Nc3ccn([C@@H]4O[C@H](COP(=O)(O)O)[C@@H](O)C4(F)F)c(=O)n3)cc2c1 [Compound 1, ((2R,3R,5R)-5-(4-((((5,7-dimethoxybenzofuran-2-yl)methoxy)carbonyl)-amino)-2-oxopyrimidin-1(2H)-yl)-4,4-difluoro-3-hydroxytetrahydrofuran-2-yl)methyl hydrogen phosphate triethyl ammonium salt]
pIC50 (UT-SCC-8; Homo sapiens, UT-SCC-8, 72 hours treatment): 7.64
Cytotoxicity IC50 ratio Compound 1/Int 1-4 (UT-SCC-8; UT-SCC-8): 0.7
Cytotoxicity IC50 ratio Compound 1/gemcitabine (UT-SCC-8; UT-SCC-8): 1.0
pIC50 (UT-SCC-5; Homo sapiens, UT-SCC-5, 72 hours treatment): 7.62
Cytotoxicity IC50 ratio Compound 1/Int 1-4 (UT-SCC-5; UT-SCC-5): 1.5
Cytotoxicity IC50 ratio Compound 1/gemcitabine (UT-SCC-5; UT-SCC-5): 2.7
Cytotoxicity IC50 ratio Compound 1/Int 1-4 (UT-SCC-16A): 0.5
Cytotoxicity IC50 ratio Compound 1/gemcitabine (UT-SCC-16A): 1.2
pIC50 (UT-SCC-16A; [6]): 7.14
pIC50 (UT-SCC-10; Homo sapiens, UT-SCC-10, 72 hours treatment): 7.85
Cytotoxicity IC50 ratio Compound 1/Int 1-4 (UT-SCC-10; UT-SCC-10): 1.6
Cytotoxicity IC50 ratio Compound 1/gemcitabine (UT-SCC-10; UT-SCC-10): 1.6
pIC50 (UT-SCC-14; Homo sapiens, UT-SCC-14, 72 hours treatment): 7.89
Cytotoxicity IC50 ratio Compound 1/Int 1-4 (UT-SCC-14; UT-SCC-14): 1.0
Cytotoxicity IC50 ratio Compound 1/gemcitabine (UT-SCC-14; UT-SCC-14): 2.2
average ratio of cytotoxicity IC50 values Compound 1/Int 1-4 [4]: ~1
average ratio of cytotoxicity IC50 values Compound 1/gemcitabine [4]: ~1.6
Cytotoxicity IC50 ratio Compound 1/Int 1-4 (UT-SCC-16B): 0.8
Cytotoxicity IC50 ratio Compound 1/gemcitabine (UT-SCC-16B): 1.3
pIC50 (UT-SCC-16B; [6]): 6.89
Cytotoxicity IC50 ratio Compound 1/Int 1-4 (UT-SCC-24A): 0.9
Cytotoxicity IC50 ratio Compound 1/gemcitabine (UT-SCC-24A): 1.3
pIC50 (UT-SCC-24A; [6]): 7.74
pIC50 (UT-SCC-9; Homo sapiens, UT-SCC-9, 72 hours treatment): 7.28
Cytotoxicity IC50 ratio Compound 1/Int 1-4 (UT-SCC-9; UT-SCC-9): 1.4
Cytotoxicity IC50 ratio Compound 1/gemcitabine (UT-SCC-9; UT-SCC-9): 1.5
